Laboratory results: patent US12050218B2, “Mitochondrial protease OMA1 as a marker for breast cancer” (NUtech Ventures, priority 2017, dated 2024)

Key:
[1] = test system: oma1−/− mouse embryonic fibroblasts; assay: Cell viability / growth rate of MEF cells under glutamate pathway inhibition; type: cell-based; conditions: 10 μM BPTES, low glucose or 10 mM galactose medium; oma1−/− vs wild type MEFs (FIG. 1B)
Procedure: FIG. 1A depicts extracellular acidification rates (ECAR) in wild type and oma1^−/− mouse embryonic fibroblasts under basal, FCCP-stimulated, and glycolysis-ablating (2-DG) conditions. Cells were cultured in the media containing 10 mM glucose. Data are shown as mean values of 3 independent experiments±S.E.M.; **p<0.01, by unpaired t-test. FIG. 1B depicts growth rate of wild type (WT) and oma1^−/− MEF cells under conditions of glutamate pathway inhibition by BPTES. Cells were cultured in the 10 mM galactose-containing medium with (left panel) or without (right panel) 10 μM BPTES for the indicated periods of time and the number of viable cells at each time point has been assessed. […] FIG. 1D depicts the prevalence of cells with protrusions was analyzed in WT and oma1^−/− MEF cells two days after re-seeding on 6-well plates after one week of growth at 100% confluence. […] Of the cells in the field of view, the number of cells with long lamellopodia and cells with normal lamellopodia were counted. […]
(§1) The wild type and oma1^−/− mouse embryonic fibroblasts (24, obtained from Dr. Carlos Lopez-Otin, University of Oviedo) were seeded into 12-well plates at the density of 4×10^4 cells per well. […] Every 24 hours cells, from one well per condition were trypsinized with 0.05% Trypsin (Life Technologies), washed with Ca-, Mg-PBS, resuspended and counted in Countess Automated Cell Counter (Life Technologies). […]

[2] = test system: OMA1-depleted 21MT-1 cells; assay: Growth rate of control and OMA1-depleted 21MT-1 cells under glutamate pathway inhibition; type: cell-based, human; conditions: 10 μM BPTES, 10 mM galactose medium; OMA1 KD vs control 21MT-1 cells (FIG. 3C)
Procedure: FIG. 3A depicts a representative oxygen consumption rate (OCR) graph in control and OMA1-depleted 21MT-1 cells under basal, oligomycin A (OLA), FCCP, and Antimycin A/Rotenone (AA+Rot.) stimulated conditions. Cells were cultured in the medium containing 10 mM galactose. FIG. 3B depicts respiratory control ratios in control and OMA1 KD 21MT-1 cells cultured in 10 mM galactose medium. Data represent the mean±S.E.M. (n=3 biological replicates); *p<0.05, by t-test. FIG. 3C depicts the growth rate of control and OMA1-depleted 21MT-1 cells under conditions of glutamate pathway inhibition. Cells were cultured in the 10 mM galactose-containing medium in the presence of 10 μM BPTES for the indicated periods of time and the number of viable cells at each time point has been assessed. Data represent the mean±S.D. (n=3 biological replicates); *p<0.05, ***p<0.001, by unpaired t-test.
as §1

O=C(Cc1ccccc1)Nc1nnc(CCSCCc2nnc(NC(=O)Cc3ccccc3)s2)s1 [BPTES]
proliferation of oma1−/− MEFs compared with wild type cells [1]: proliferated at much slower rates than wild type cells | sensitivity of OMA1-depleted 21MT-1 cells to glutaminase inhibitor [2]: marked increase in sensitivity
